How the values were obtained:
field poppy = assay: Test D postemergence; format: in vivo, Papaver rhoeas; conditions: Papaver rhoeas, post-emergence, scale 0 to 100 (0 no effect, 100 complete control), read-out: Plant response rating, Field Poppy
Outline: (§1)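 Species were sown in silt loam for preemergence treatment, or grown in peat-based medium to the 1–4-leaf stage (2–18 cm) for postemergence sprays. Test chemicals were formulated in a non-phytotoxic solvent mixture with surfactant. After 7–21 days in a controlled environment, plants were rated visually against controls on a 0 (no effect) to 100 (complete control) scale.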

spring wheat = assay: Test D preemergence; format: in vivo, Triticum aestivum; conditions: Triticum aestivum, pre-emergence
Outline: as §1

winter wheat = assay: Test D preemergence; format: in vivo, Triticum aestivum; conditions: Triticum aestivum, pre-emergence
Outline: as §1

wild radish = assay: Test D preemergence; format: in vivo, Raphanus raphanistrum; conditions: Raphanus raphanistrum, pre-emergence
Outline: as §1

bluegrass = assay: Test D postemergence; format: in vivo, Poa annua; conditions: Poa annua, post-emergence, Postemergence, scale 0 to 100 (0 no effect, 100 complete control), read-out: Plant response rating, Bluegrass
Outline: as §1

Brazilian crabgrass = assay: Test E postemergence; format: in vivo, Digitaria horizontalis; conditions: Digitaria horizontalis, post-emergence, read-out: Plant response rating, Crabgrass, Brazil
Outline: (§2)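 Test chemicals formulated in a non-phytotoxic solvent mixture containing a surfactant were applied preemergence to seeds in silt loam soil or postemergence to plants at the 1- to 4-leaf stage in potting mix. After 14 to 21 days in a greenhouse, injury was visually rated against controls on a 0-100 scale (0 = no effect, 100 = complete control).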

field violet = assay: Test D postemergence; format: in vivo, Viola arvensis; conditions: Viola arvensis, post-emergence, scale 0 to 100 (0 no effect, 100 complete control), read-out: Plant response rating, Field Violet
Outline: as §1

soybean = assay: Test E postemergence; format: in vivo, Glycine max; conditions: Glycine max, post-emergence
Outline: as §2

wild oat = assay: Test D preemergence; format: in vivo, Avena fatua; conditions: Avena fatua, pre-emergence, scale 0-100, read-out: Plant response rating, Oat, Wild
Outline: as §1

speedwell = assay: Test D preemergence; format: in vivo, Veronica persica; conditions: Veronica persica, pre-emergence
Outline: as §1

[1] = system: waterhemp_RES2 (ALS & HPPD resistant common waterhemp); assay: Test E postemergence; format: in vivo, Amaranthus rudis; conditions: Amaranthus tuberculatus, post-emergence, read-out: Plant response rating, Waterhemp_RES2
Outline: as §2

waterhemp = assay: Test E postemergence; format: in vivo, Amaranthus rudis; conditions: Amaranthus tuberculatus, post-emergence, Postemergence, scale 0 to 100, read-out: Plant response rating, Waterhemp
Outline: as §2

deadnettle = assay: Test D preemergence; format: in vivo, Lamium amplexicaule; conditions: Lamium amplexicaule, pre-emergence, scale 0-100, read-out: Plant response rating, Deadnettle
Outline: as §1

[2] = Postemergence, 31 g ai/ha, scale 0 to 100
[3] = Postemergence, 62 g ai/ha, scale 0 to 100
[4] = Postemergence, 125 g ai/ha, scale 0 to 100
[5] = Postemergence, 250 g ai/ha, scale 0 to 100
[6] = postemergence, 16 g ai/ha, scale 0 to 100, 0 no effect, 100 complete control

## N#Cc1cccc(Oc2ncc(Br)cn2)c1-n1cc(C(F)(F)F)cn1 [Compound 59, 3-[(5-bromo-2-pyrimidinyl)oxy]-2-[4-(trifluoromethyl)-1H-pyrazol-1-yl]benzonitrile]
Field poppy; 31 g ai/ha
  pest or weed control at 31 g/ha: 70%
Field poppy; 62 g ai/ha
  pest or weed control at 62 g/ha: 65%
Field poppy; 125 g ai/ha
  pest or weed control at 125 g/ha: 100%
Field poppy; 250 g ai/ha
  pest or weed control at 250 g/ha: 100%
Spring wheat; 31 g ai/ha, scale 0 (no effect) to 100 (complete control), read-out: Plant response rating, Wheat, Spring
  plant injury at 31 g/ha: 0%
Spring wheat; 62 g ai/ha, scale 0-100, read-out: Plant response rating, Wheat, Spring
  plant injury at 62 g/ha: 5%
Spring wheat; 125 g ai/ha, scale 0-100, read-out: Plant response rating, Wheat, Spring
  plant injury at 125 g/ha: 40%
Spring wheat; 250 g ai/ha, scale 0-100, read-out: Plant response rating, Wheat, Spring
  plant injury at 250 g/ha: 55%
Winter wheat; 31 g ai/ha, scale 0 (no effect) to 100 (complete control), read-out: Plant response rating, Wheat, Winter
  plant injury at 31 g/ha: 0%
Winter wheat; 62 g ai/ha, scale 0-100, read-out: Plant response rating, Wheat, Winter
  plant injury at 62 g/ha: 5%
Winter wheat; 125 g ai/ha, scale 0-100, read-out: Plant response rating, Wheat, Winter
  plant injury at 125 g/ha: 5%
Winter wheat; 250 g ai/ha, scale 0-100, read-out: Plant response rating, Wheat, Winter
  plant injury at 250 g/ha: 35%
Wild radish; 31 g ai/ha, scale 0 (no effect) to 100 (complete control), read-out: Plant response rating, Radish, Wild
  pest or weed control at 31 g/ha: 95%
Wild radish; 62 g ai/ha, scale 0-100, read-out: Plant response rating, Radish, Wild
  pest or weed control at 62 g/ha: 100%
Wild radish; 125 g ai/ha, scale 0-100, read-out: Plant response rating, Radish, Wild
  pest or weed control at 125 g/ha: 95%
Wild radish; 250 g ai/ha, scale 0-100, read-out: Plant response rating, Radish, Wild
  pest or weed control at 250 g/ha: 100%
bluegrass; 31 g ai/ha
  pest or weed control at 31 g/ha: 15%
bluegrass; 62 g ai/ha
  pest or weed control at 62 g/ha: 15%
bluegrass; 125 g ai/ha
  pest or weed control at 125 g/ha: 20%
bluegrass; 250 g ai/ha
  pest or weed control at 250 g/ha: 40%
Brazilian crabgrass; [2]
  pest or weed control at 31 g/ha: 15%
Brazilian crabgrass; [3]
  pest or weed control at 62 g/ha: 20%
Brazilian crabgrass; [4]
  pest or weed control at 125 g/ha: 25%
Brazilian crabgrass; [5]
  pest or weed control at 250 g/ha: 50%
Brazilian crabgrass; [6]
  pest or weed control at 16 g/ha: 15%
Field violet; 31 g ai/ha
  pest or weed control at 31 g/ha: 100%
Field violet; 62 g ai/ha
  pest or weed control at 62 g/ha: 100%
Field violet; 125 g ai/ha
  pest or weed control at 125 g/ha: 100%
Field violet; 250 g ai/ha
  pest or weed control at 250 g/ha: 100%
soybean; [2]
  plant response (crop injury) rating, soybean, 0-100 scale at 31 g/ha: 65%
soybean; [3]
  plant response (crop injury) rating, soybean, 0-100 scale at 62 g/ha: 95%
soybean; [4]
  plant response (crop injury) rating, soybean, 0-100 scale at 125 g/ha: 95%
soybean; [5]
  plant response (crop injury) rating, soybean, 0-100 scale at 250 g/ha: 98%
soybean; [6]
  plant response (crop injury) rating, soybean, 0-100 scale at 16 g/ha: 60%
Wild oat; 31 g ai/ha
  pest or weed control at 31 g/ha: 0%
Wild oat; 62 g ai/ha
  pest or weed control at 62 g/ha: 0%
Wild oat; 125 g ai/ha
  pest or weed control at 125 g/ha: 20%
Wild oat; 250 g ai/ha
  pest or weed control at 250 g/ha: 55%
speedwell; 31 g ai/ha, scale 0 (no effect) to 100 (complete control), read-out: Plant response rating, Speedwell
  pest or weed control at 31 g/ha: 15%
speedwell; 62 g ai/ha, scale 0-100, read-out: Plant response rating, Speedwell
  pest or weed control at 62 g/ha: 100%
speedwell; 125 g ai/ha, scale 0-100, read-out: Plant response rating, Speedwell
  pest or weed control at 125 g/ha: 100%
speedwell; 250 g ai/ha, scale 0-100, read-out: Plant response rating, Speedwell
  pest or weed control at 250 g/ha: 100%
[1]; [2]
  pest or weed control at 31 g/ha: 85%
[1]; [3]
  pest or weed control at 62 g/ha: 90%
[1]; [4]
  pest or weed control at 125 g/ha: 95%
[1]; [5]
  pest or weed control at 250 g/ha: 100%
[1]; [6]
  pest or weed control at 16 g/ha: 75%
waterhemp; 31 g ai/ha
  pest or weed control at 31 g/ha: 65%
waterhemp; 62 g ai/ha
  pest or weed control at 62 g/ha: 90%
waterhemp; 125 g ai/ha
  pest or weed control at 125 g/ha: 90%
waterhemp; 250 g ai/ha
  pest or weed control at 250 g/ha: 100%
deadnettle; 31 g ai/ha
  pest or weed control at 31 g/ha: 100%
deadnettle; 62 g ai/ha
  pest or weed control at 62 g/ha: 100%
deadnettle; 125 g ai/ha
  pest or weed control at 125 g/ha: 100%
deadnettle; 250 g ai/ha
  pest or weed control at 250 g/ha: 100%
